Data set [1] in a line: Repeated administration on male rats for 2 weeks (toxicity, toxicokinetics). The class given is in vivo, SD male rats. As for the experimental part:
77 SD male rats (SPF grade) were selected and randomly divided into 10 groups based on body weight. Group 1 was the vehicle control group, including 5 animals. […] Group 5 to Group 7 were the groups administrated with the test substance 1; and Group 8 to Group 10 were the groups administrated with the test substance 2, each group including 8 animals, wherein 5 animals for primary test, and 3 animals for toxicokinetics test, and the administration dose was 1, 3 and 10 mg/kg respectively. Each of the above groups was continuously administered twice a week for 2 weeks (administrating at Day 1, Day 5, Day 8, Day 12 and Day 15).
During the experiment, the cage condition monitoring, detailed clinical observations, determination of the food consumption, determination of body weight, measurement of the blood biochemical and hematology indicator, investigation of the gross anatomy, weighing of the organ, studying on toxicokinetic were performed on all the groups of the animals.
Original data during each time period was tabulated. The average values and standard deviations and/or group change were calculated for each assay endpoint based on the group and sex. For each endpoint, the administrated group will be compared with the control group in the following aspect. A logarithmic conversion was performed to the endpoint data as desired prior to the start of the specific analyses.

Data set [2] is described as follows: Pharmacokinetics following single administration in SD rats. As to conditions: male, Sprague-Dawley, rat, in vivo, sc. On the procedure:
The compound was administrated to male SD rats (230-268 g, n=3) at a dose of 50.0 nmol/kg (s.c.) or 25.0 nmol/kg (i.v.). […] 30.0 μL of thawed plasma sample was taken. 150 μL of acetonitrile solution (containing 5 ng·mL^-1 Verapamil , 50 ng·mL^-1 Glibenclamide, 200 ng·mL^-1 Tolbutamide and 200 ng·mL^-1 Diclofenac) were added to precipitate protein. The mixture was vortexed for 5 minutes, and centrifuged at 3700 rpm for 8 minutes. 70.0 μL of the supernatant was taken, into which 70.0 μL of 0.5% aqueous formic acid solution was added. The mixture was vortexed for 5 minutes. 15 μL of the mixture solution was sampled and injected into the LC-MS/MS to determine the drug concentration in plasma. 20.0 μL of thawed plasma sample was taken. 60 μL of acetonitrile solution (containing 5 ng·mL^-1 Verapamil, 50 ng·mL^-1 Glibenclamide, 200 ng·mL^-1 Tolbutamide and 200 ng·mL^-1 Diclofenac) were added to precipitate protein. […] The mixture was vortexed for 10 minutes. 10.0 μL of the mixture solution was sampled and injected into the LC-MS/MS to determine the drug concentration in plasma. 30.0 μL of thawed plasma sample was taken. 150 μL of acetonitrile solution (containing 5 ng·mL^-1 Verapamil, 50 ng·mL^-1 Glibenclamide, 200 ng·mL^-1 Tolbutamide and 200 ng·mL^-1 Diclofenac) were added to precipitate protein. The mixture was vortexed for 5 minutes, and centrifuged at 3700 rpm for 8 minutes. 70.0 μL of the supernatant was taken, into which 70.0 μL of 0.5% aqueous formic acid solution was added. The mixture was vortexed for 5 minutes. 10.0 μL of the mixture solution was sampled and injected into the LC-MS/MS to determine the drug concentration in plasma. […] Table 5 Pharmacokinetic Parameters after Subcutaneous Injection of Different Polypeptide Compounds to Rats

One may read the Tmax as the time from dosing to the highest level. For orientation: half-life means how long it takes for the measured level to halve. The low end stands for fast loss, the high end for slow loss. As to `CC[C@H](C)[C@H](NC(=O)C(C)(C)NC(=O)[C@H](Cc1ccc(O)cc1)NC(=O)[C@H](CC(=O)O)NC(=O)[C@H](CO)NC(=O)[C@@H](NC(=O)C(C)(Cc1ccccc1)NC(=O)[C@@H](NC(=O)CNC(=O)[C@H](CCC(=O)O)NC(=O)C(C)(C)NC(=O)[C@@H](N)Cc1ccc(O)cc1)[C@@H](C)O)[C@@H](C)O)C(=O)NC(C)(C)C(=O)N[C@@H](CC(C)C)C(=O)N[C@@H](CC(=O)O)C(=O)N[C@@H](CCCCN)C(=O)N[C@@H](CCC(N)=O)C(=O)N[C@@H](C)C(=O)N[C@@H](CCC(N)=O)C(=O)N[C@@H](C)C(=O)N[C@@H](CCC(=O)O)C(=O)N[C@@H](Cc1ccccc1)C(=O)N[C@H](C(=O)N[C@@H](CCCCNC(=O)COCCOCCNC(=O)COCCOCCNC(=O)CC[C@H](NC(=O)CCCCCCCCCCCCCCCCCCCCC(=O)O)C(=O)O)C(=O)N[C@@H](Cc1c[nH]c2ccccc12)C(=O)N[C@@H](CC(C)C)C(=O)N[C@@H](CC(C)C)C(=O)N[C@@H](CCCCN)C(=O)NCC(=O)NCC(=O)N1CCC[C@H]1C(=O)N[C@@H](CO)C(=O)N[C@@H](CO)C(=O)NCC(=O)N[C@@H](C)C(=O)N1CCC[C@H]1C(=O)N1CCC[C@H]1C(=O)N1CCC[C@H]1C(=O)N[C@@H](CO)C(=O)N[C@@H](CCCCN)C(N)=O)C(C)C` (stereo partly shown) [Compound P014], in data set [1] (MTD for 2 weeks, rats), the MTD is 1980 nmol/kg (MTD for 2 weeks). For the same compound, the “dose at which decrease of the body weight was observed after the first administration” value in data set [1] (SD male rats) is listed as ≥ 1 mg/kg. Further, the “Gross Anatomy” value in data set [1] (SD male rats, 1, 3, 10 mg/kg twice a week for 2 weeks) was “no abnormalities were found”. For the same compound, the “accumulation (toxicokinetic)” value in data set [1] (SD male rats, administered twice a week for 2 weeks) is reported as “no substantial accumulation”. In data set [1] (Sprague-Dawley, rat, in vivo, SD male rats, administered twice a week for 2 weeks), the MTD at 336 h was ≥ 10 mg/kg. Also, the “Safety Window (based on dosage)” value in data set [1] (rat 2-week MTD versus efficacy dose) was determined as 1319. Moreover, the “safety window (based on exposure), times of that of Tirzepatide” value in data set [1] (rat, in vivo) is recorded as “more than 4 times”. Also, in data set [2], the time of peak concentration (Tmax) was 24 h and the half-life is 14.8 ± 0.503 h.
Turning to `CC[C@H](C)[C@H](NC(=O)C(C)(C)NC(=O)[C@H](Cc1ccc(O)cc1)NC(=O)[C@H](CC(=O)O)NC(=O)[C@H](CO)NC(=O)[C@@H](NC(=O)C(C)(Cc1ccccc1)NC(=O)[C@@H](NC(=O)CNC(=O)[C@H](CCC(=O)O)NC(=O)C(C)(C)NC(=O)[C@@H](N)Cc1ccc(O)cc1)[C@@H](C)O)[C@@H](C)O)C(=O)NC(C)(C)C(=O)N[C@@H](CC(C)C)C(=O)N[C@@H](CC(=O)O)C(=O)N[C@@H](CCCCN)C(=O)N[C@@H](CCC(N)=O)C(=O)N[C@@H](C)C(=O)N[C@@H](CCC(N)=O)C(=O)N[C@@H](C)C(=O)N[C@@H](CCC(=O)O)C(=O)N[C@@H](Cc1ccccc1)C(=O)N[C@H](C(=O)N[C@@H](CCCCN)C(=O)N[C@@H](Cc1c[nH]c2ccccc12)C(=O)N[C@@H](CC(C)C)C(=O)N[C@@H](CC(C)C)C(=O)N[C@@H](CCCCNC(=O)COCCOCCNC(=O)COCCOCCNC(=O)CC[C@H](NC(=O)CCCCCCCCCCCCCCCCCCCCC(=O)O)C(=O)O)C(=O)NCC(=O)NCC(=O)N1CCC[C@H]1C(=O)N[C@@H](CO)C(=O)N[C@@H](CO)C(=O)NCC(=O)N[C@@H](C)C(=O)N1CCC[C@H]1C(=O)N1CCC[C@H]1C(=O)N1CCC[C@H]1C(=O)N[C@@H](CO)C(=O)N[C@@H](CCCCN)C(N)=O)C(C)C` (stereo partly shown) [Compound P017], in data set [2], the time to peak (Tmax) turned out to be 24 h and the half-life was 18.7 ± 2.69 h.
On to `CC[C@H](C)[C@H](NC(=O)C(C)(C)NC(=O)[C@H](Cc1ccc(O)cc1)NC(=O)[C@H](CC(=O)O)NC(=O)[C@H](CO)NC(=O)[C@@H](NC(=O)C(C)(Cc1ccccc1)NC(=O)[C@@H](NC(=O)CNC(=O)[C@H](CCC(=O)O)NC(=O)C(C)(C)NC(=O)[C@@H](N)Cc1ccc(O)cc1)[C@@H](C)O)[C@@H](C)O)C(=O)NC(C)(C)C(=O)N[C@@H](CC(C)C)C(=O)N[C@@H](CC(=O)O)C(=O)N[C@@H](CCCCN)C(=O)N[C@@H](CCC(N)=O)C(=O)N[C@@H](C)C(=O)N[C@@H](CCC(N)=O)C(=O)N[C@@H](C)C(=O)N[C@@H](CCC(=O)O)C(=O)N[C@@H](Cc1ccccc1)C(=O)N[C@H](C(=O)N[C@@H](CCCCN)C(=O)N[C@@H](Cc1c[nH]c2ccccc12)C(=O)N[C@@H](CC(C)C)C(=O)N[C@@H](CC(C)C)C(=O)N[C@@H](CCCCNC(=O)COCCOCCNC(=O)COCCOCCNC(=O)COCCOCCNC(=O)CC[C@H](NC(=O)CCCCCCCCCCCCCCCCCCCCC(=O)O)C(=O)O)C(=O)NCC(=O)NCC(=O)N1CCC[C@H]1C(=O)N[C@@H](CO)C(=O)N[C@@H](CO)C(=O)NCC(=O)N[C@@H](C)C(=O)N1CCC[C@H]1C(=O)N1CCC[C@H]1C(=O)N1CCC[C@H]1C(=O)N[C@@H](CO)C(=O)N[C@@H](CCCCN)C(N)=O)C(C)C` (stereo partly shown) [Compound P020], for which, in data set [2], the time to peak (Tmax) is 24 h and the half-life was 17.9 ± 0.57 h.

These data come from EP4813403A1, “USE OF GLP-1R/GIPR DOUBLE-TARGET AGONIST IN PREPARING ANIMAL DRUG” (Hangzhou Zhongmeihuadong Pharmaceutical Co., Ltd., priority 2023, dated 2025).
